{
  "source": "PubChem BioAssay AID328",
  "about": "(DTP/NCI, 2004)",
  "system": "BDF1 mice, P388 leukemia ip, median survival T/C",
  "assay": "NCI In Vivo Anticancer Drug Screen. Data for tumor model P388 Leukemia (intraperitoneal) in B6D2F1 (BDF1) mice",
  "settings": "endpoint: median survival time, higher = longer survival",
  "outline": "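Antitumour effect was judged in vivo: survival in drug-treated mice, normalised to that of vehicle-dosed controls, gives the reported T/C.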",
  "key": {"[1]": {"settings": "dose: 25.0 mg/kg/injection, schedule: Q01DX009 (ip), vehicle: saline"}, "[2]": {"settings": "dose: 12.5 mg/kg/injection, schedule: Q04DX003 (ip), vehicle: saline"}, "[3]": {"settings": "dose: 25.0 mg/kg/injection, schedule: Q04DX003 (ip), vehicle: saline"}, "[4]": {"settings": "dose: 100.0 mg/kg/injection, schedule: Q04DX003 (ip), vehicle: saline with Tween-80"}, "[5]": {"settings": "dose: 200.0 mg/kg/injection, schedule: Q04DX003 (ip), vehicle: saline with Tween-80"}, "[6]": {"settings": "dose: 400.0 mg/kg/injection, schedule: Q04DX003 (ip), vehicle: saline with Tween-80"}, "[7]": {"settings": "dose: 50.0 mg/kg/injection, schedule: Q01DX009 (ip), vehicle: saline with Tween-80"}, "[8]": {"settings": "dose: 100.0 mg/kg/injection, schedule: Q01DX009 (ip), vehicle: saline with Tween-80"}, "[9]": {"settings": "dose: 200.0 mg/kg/injection, schedule: Q01DX009 (ip), vehicle: saline with Tween-80"}},
  "note": "“And” between values parts separate entries of the source, which are not always exact repeats. Equal values may be shown once. Toxic doses and inconclusive results are not listed.",
  "data": [
    {"smiles": "CC(C(=O)O)C(=O)O.[NH2-].[NH2-].[Pt+2]", "values": [
      {"measurement": "T/C", "setting": "dose: 6.25 mg/kg/injection, schedule: Q01DX009 (ip), vehicle: saline", "result": "93 % of control"},
      {"measurement": "T/C", "setting": "[1]", "result": "214 % of control"}
    ]},
    {"smiles": "CC1OCC(Br)([N+](=O)[O-])CO1", "note": "(stereo not drawn)", "values": [
      {"measurement": "T/C", "setting": "[2]", "result": "99 % of control"},
      {"measurement": "T/C", "setting": "[3]", "result": "107 % of control"}
    ]},
    {"smiles": "COc1ccc2[nH]c(=S)[nH]c(=S)c2c1", "values": [
      {"measurement": "T/C", "setting": "[4]", "result": "92 % of control"},
      {"measurement": "T/C", "setting": "[5]", "result": "91 % of control"},
      {"measurement": "T/C", "setting": "[6]", "result": "100 % of control"}
    ]},
    {"smiles": "COc1ccc(Cl)cc1NC(=O)c1ccccc1C(=O)O", "values": [
      {"measurement": "T/C", "setting": "dose: 100.0 mg/kg/injection, schedule: Q04DX003 (ip), vehicle: Klucel (hydroxypropylcellulose) (HPC)", "result": "91 % of control"},
      {"measurement": "T/C", "setting": "dose: 200.0 mg/kg/injection, schedule: Q04DX003 (ip), vehicle: Klucel (hydroxypropylcellulose) (HPC)", "result": "87 % of control"},
      {"measurement": "T/C", "setting": "dose: 400.0 mg/kg/injection, schedule: Q04DX003 (ip), vehicle: Klucel (hydroxypropylcellulose) (HPC)", "result": "87 % of control"}
    ]},
    {"smiles": "CC1CCS(=O)(=O)CC1.[Cl][Hg][Cl]", "values": [
      {"measurement": "T/C", "setting": "dose: 0.3 mg/kg/injection, schedule: Q01DX009 (ip), vehicle: saline", "result": "95 % of control"},
      {"measurement": "T/C", "setting": "dose: 0.6 mg/kg/injection, schedule: Q01DX009 (ip), vehicle: saline", "result": "100 % of control"},
      {"measurement": "T/C", "setting": "dose: 1.2 mg/kg/injection, schedule: Q01DX009 (ip), vehicle: saline", "result": "95 % of control"}
    ]},
    {"smiles": "O=Cc1c[nH]c2nccnc12", "values": [
      {"measurement": "T/C", "setting": "[1]", "result": "98 % of control"},
      {"measurement": "T/C", "setting": "dose: 50.0 mg/kg/injection, schedule: Q01DX009 (ip), vehicle: saline", "result": "101 % of control"},
      {"measurement": "T/C", "setting": "dose: 100.0 mg/kg/injection, schedule: Q01DX009 (ip), vehicle: saline", "result": "99 % of control and 115 % of control"},
      {"measurement": "T/C", "setting": "dose: 100.0 mg/kg/injection, schedule: Q04DX003 (ip), vehicle: saline", "result": "100 % of control"},
      {"measurement": "T/C", "setting": "dose: 200.0 mg/kg/injection, schedule: Q01DX009 (ip), vehicle: saline", "result": "107 % of control and 108 % of control"},
      {"measurement": "T/C", "setting": "dose: 200.0 mg/kg/injection, schedule: Q04DX003 (ip), vehicle: saline", "result": "101 % of control"},
      {"measurement": "T/C", "setting": "dose: 400.0 mg/kg/injection, schedule: Q04DX003 (ip), vehicle: saline", "result": "103 % of control"}
    ]},
    {"smiles": "O=[N+]([O-])c1c(Cl)cccc1-c1c[nH]cc1Cl", "values": [
      {"measurement": "T/C", "setting": "dose: 100.0 mg/kg/injection, schedule: Q01DX009 (ip), vehicle: Klucel (hydroxypropylcellulose) (HPC)", "result": "95 % of control"},
      {"measurement": "T/C", "setting": "dose: 200.0 mg/kg/injection, schedule: Q01DX009 (ip), vehicle: Klucel (hydroxypropylcellulose) (HPC)", "result": "95 % of control"},
      {"measurement": "T/C", "setting": "dose: 400.0 mg/kg/injection, schedule: Q01DX009 (ip), vehicle: Klucel (hydroxypropylcellulose) (HPC)", "result": "86 % of control"}
    ]},
    {"smiles": "O=C(O)C(Br)C(Br)c1ccccc1", "note": "(stereo not drawn)", "values": [
      {"measurement": "T/C", "setting": "[4]", "result": "100 % of control"},
      {"measurement": "T/C", "setting": "[5]", "result": "100 % of control"},
      {"measurement": "T/C", "setting": "[6]", "result": "109 % of control"}
    ]},
    {"smiles": "C[n+]1ccc(NC(=O)c2ccc(NC(=O)c3cccc(C(=O)Nc4ccc(C(=O)Nc5cc[n+](C)cc5)cc4)c3)cc2)cc1", "values": [
      {"measurement": "T/C", "setting": "dose: 66.0 mg/kg/injection, schedule: Q04DX003 (ip), vehicle: saline with Tween-80", "result": "160 % of control"},
      {"measurement": "T/C", "setting": "[4]", "result": "239 % of control"}
    ]},
    {"smiles": "CCOC(=O)c1ccc(NCC(=N)N)cc1", "values": [
      {"measurement": "T/C", "setting": "dose: 37.5 mg/kg/injection, schedule: Q01DX001 (ip), vehicle: saline sonified", "result": "100 % of control"},
      {"measurement": "T/C", "setting": "dose: 75.0 mg/kg/injection, schedule: Q01DX001 (ip), vehicle: saline sonified", "result": "100 % of control"},
      {"measurement": "T/C", "setting": "dose: 150.0 mg/kg/injection, schedule: Q01DX001 (ip), vehicle: saline sonified", "result": "100 % of control"}
    ]},
    {"smiles": "O=C(NC(NC(=O)c1ccc(Cl)cc1)C(Cl)(Cl)Cl)c1ccc(Cl)cc1", "values": [
      {"measurement": "T/C", "setting": "dose: 25.0 mg/kg/injection, schedule: Q04DX003 (ip), vehicle: saline with Tween-80", "result": "90 % of control"},
      {"measurement": "T/C", "setting": "dose: 50.0 mg/kg/injection, schedule: Q04DX003 (ip), vehicle: saline with Tween-80", "result": "86 % of control"},
      {"measurement": "T/C", "setting": "[4]", "result": "90 % of control"}
    ]},
    {"smiles": "O=C(Nc1ncccn1)C12CC3CC(CC(C3)C1)C2", "values": [
      {"measurement": "T/C", "setting": "[7]", "result": "88 % of control"},
      {"measurement": "T/C", "setting": "[8]", "result": "96 % of control"},
      {"measurement": "T/C", "setting": "[9]", "result": "93 % of control"}
    ]},
    {"smiles": "SC1(SC2(S)CCCCC2)CCCCC1", "values": [
      {"measurement": "T/C", "setting": "[7]", "result": "100 % of control"},
      {"measurement": "T/C", "setting": "[8]", "result": "100 % of control"},
      {"measurement": "T/C", "setting": "[9]", "result": "100 % of control"}
    ]},
    {"smiles": "COc1cc2c(cc1OC)C1CCN3C(=O)CCC3N1CC2", "note": "(stereo not drawn)", "values": [
      {"measurement": "T/C", "setting": "[4]", "result": "88 % of control"},
      {"measurement": "T/C", "setting": "[9]", "result": "92 % of control"},
      {"measurement": "T/C", "setting": "[5]", "result": "92 % of control"},
      {"measurement": "T/C", "setting": "dose: 400.0 mg/kg/injection, schedule: Q01DX009 (ip), vehicle: saline with Tween-80", "result": "104 % of control"},
      {"measurement": "T/C", "setting": "[6]", "result": "96 % of control"}
    ]},
    {"smiles": "CCC1CCCCN1C", "note": "(stereo not drawn)", "values": [
      {"measurement": "T/C", "setting": "[2]", "result": "100 % of control"},
      {"measurement": "T/C", "setting": "[3]", "result": "90 % of control"},
      {"measurement": "T/C", "setting": "dose: 50.0 mg/kg/injection, schedule: Q04DX003 (ip), vehicle: saline", "result": "90 % of control"}
    ]},
    {"smiles": "FC(F)(F)c1nc2nc(Cl)c(Cl)nc2[nH]1", "values": [
      {"measurement": "T/C", "setting": "dose: 10.0 mg/kg/injection, schedule: Q01DX009 (ip), vehicle: other", "result": "100 % of control"},
      {"measurement": "T/C", "setting": "dose: 20.0 mg/kg/injection, schedule: Q01DX009 (ip), vehicle: other", "result": "109 % of control"},
      {"measurement": "T/C", "setting": "dose: 26.6 mg/kg/injection, schedule: Q01DX009 (ip), vehicle: other", "result": "120 % of control"},
      {"measurement": "T/C", "setting": "dose: 44.0 mg/kg/injection, schedule: Q04DX003 (ip), vehicle: other", "result": "118 % of control"},
      {"measurement": "T/C", "setting": "dose: 100.0 mg/kg/injection, schedule: Q04DX003 (ip), vehicle: other", "result": "150 % of control"}
    ]}
  ]
}
